We go through two molecules from ChEMBL document CHEMBL4359912, “Novel N-Substituted oseltamivir derivatives as potent influenza neuraminidase inhibitors: Design, synthesis, biological evaluation, ADME prediction and molecular docking studies” (Eur J Med Chem, 2019).

In general, IC50 refers to the concentration that inhibits the measured activity by half. Low readings indicate greater potency, high ones weaker potency.

Structures are written as SMILES.

This assay has as its target Neuraminidase (Influenza A virus (A/Memphis/1/1971(H3N2)), UniProt P03471). In words: Inhibition of influenza A virus H3N2 clinical isolate neuraminidase using NA-Fluor MUNANA as substrate preincubated for 20 to 30 mins followed by substrate addition and measured for 60 mins by fluorescence assay.

Sequence of Neuraminidase (Influenza A virus (A/Memphis/1/1971(H3N2)), UniProt P03471) (P03471 whole entry): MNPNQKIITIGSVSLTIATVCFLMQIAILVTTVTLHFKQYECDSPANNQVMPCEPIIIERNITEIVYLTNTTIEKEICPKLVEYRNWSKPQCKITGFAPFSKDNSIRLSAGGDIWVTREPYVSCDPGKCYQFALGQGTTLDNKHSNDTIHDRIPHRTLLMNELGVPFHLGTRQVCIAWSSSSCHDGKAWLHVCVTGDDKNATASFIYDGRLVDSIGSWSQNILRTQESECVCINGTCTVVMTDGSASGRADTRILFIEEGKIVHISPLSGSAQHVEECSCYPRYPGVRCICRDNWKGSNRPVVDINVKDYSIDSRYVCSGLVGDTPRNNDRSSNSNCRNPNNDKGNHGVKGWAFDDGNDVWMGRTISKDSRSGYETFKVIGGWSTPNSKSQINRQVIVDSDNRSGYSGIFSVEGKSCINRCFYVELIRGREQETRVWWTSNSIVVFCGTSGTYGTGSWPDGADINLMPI

In turn, `CCC(CC)O[C@@H]1C=C(C(=O)O)C[C@H](NCc2noc(-c3ccco3)n2)[C@H]1NC(C)=O` had an IC50 of 1.92 nM. On to `CCC(CC)O[C@@H]1C=C(C(=O)O)C[C@H](NCc2ccc(-c3c(C)noc3C)o2)[C@H]1NC(C)=O`, for which the IC50 is 1.63 nM.
